Earlier results as cited in patent US9814623B2, “Antimicrobial gas impregnating devices and methods” (ENOX (ISRAEL) LTD., priority 2007, dated 2017).

Key:
[1] = tested on: infections after tympanostomy tube placement; conditions: otic drops after tympanostomy tube placement
[2] = tested on: Staphylococcus aureus; conditions: exogenous gNO at 200 ppm for extended periods of time
[3] = tested on: Escherichia coli; conditions: exogenous gNO at 200 ppm for extended periods of time
[4] = tested on: Group B Streptococcus; conditions: exogenous gNO at 200 ppm for extended periods of time
[5] = tested on: Pseudomonas aeruginosa; conditions: exogenous gNO at 200 ppm for extended periods of time
[6] = tested on: Candida albicans; conditions: exogenous gNO at 200 ppm for extended periods of time
[7] = tested on: cultured human dermal fibroblasts; conditions: exogenous gNO at 200 ppm for extended periods of time
[8] = tested on: nosocomial pneumonia caused by microbial pathogens such as S. aureus and P. aeruginosa; conditions: exogenous gNO at 200 ppm

| Compound | incidence of infection [1] | growth of Staphylococcus aureus [2] | growth of Escherichia coli [3] | growth of Group B Streptococcus [4] | growth of Pseudomonas aeruginosa [5] | growth of Candida albicans [6] | cytotoxic effects on cultured human dermal fibroblasts [7] | time to clear nosocomial pneumonia pathogens [8] |
| --- | --- | --- | --- | --- | --- | --- | --- | --- |
| Gentamicin | significantly reduced | – | – | – | – | – | – | – |
| [N]=O [gNO, nitric oxide] | – | inhibited and prevented the growth | inhibited and prevented the growth | inhibited and prevented the growth | inhibited and prevented the growth | inhibited and prevented the growth | without any cytotoxic effects | about 6 hours |
